This is an account of results in publication PMC2363406 (British Journal of Cancer, 2000).

“And” between values parts separate entries of the source, which are not always exact repeats. Equal values may be shown once. “Also recorded” adds a separate entry of the source. Where a name gives a salt, the structure may show the parent alone. Read-outs that look alike come from different tables or passages of the source.

As usually defined, the IC50 is the concentration that inhibits the measured activity by half. In general, half-life refers to the time in which the quantity being followed falls by half. One may read the Ki as the dissociation constant of the complex between target and ligand, obtained from inhibition or displacement. In general, AUC refers to concentration integrated over time.

One data set relates to cytochrome P450. The following applies: cited from earlier work; for metabolic interactions with paclitaxel: paclitaxel pre-medication drugs, 1995, Schlichenmyer et al; for effect on the metabolism of paclitaxel: 1997.
The subject of the next data set is HNX14C. Nature of the data set: In vitro growth inhibition (SRB assay), single agents and nolatrexed/paclitaxel combination (Chou and Talalay combination index). The class given is cell-based. In general terms: The SRB assay estimates cell density from bound dye.
The next data set deals with HNX22B. The data set is described as above. The format is cell-based.
Data set [1] in a line: Clinical plasma pharmacokinetics of nolatrexed (HPLC, non-compartmental analysis). The class given is in vivo, human. The following applies: for half-life: human, plasma, iv, Nolatrexed Half-life; for half-life / Nolatrexed Half-life / Nolatrexed Clearance: nolatrexed 500 mg m-2 day-1 120-h i.v. infusion.
The target of another data set is T1, CYP2C8 (Homo sapiens, UniProt P10632).
T1 construct: Pooled human liver microsomes (1 mg protein per ml) were incubated with paclitaxel; tissue Keystone Skin Bank Exton, PA, USA; host or cells: pooled human liver microsomes from ten individual livers
T1 sequence (P10632 1-490): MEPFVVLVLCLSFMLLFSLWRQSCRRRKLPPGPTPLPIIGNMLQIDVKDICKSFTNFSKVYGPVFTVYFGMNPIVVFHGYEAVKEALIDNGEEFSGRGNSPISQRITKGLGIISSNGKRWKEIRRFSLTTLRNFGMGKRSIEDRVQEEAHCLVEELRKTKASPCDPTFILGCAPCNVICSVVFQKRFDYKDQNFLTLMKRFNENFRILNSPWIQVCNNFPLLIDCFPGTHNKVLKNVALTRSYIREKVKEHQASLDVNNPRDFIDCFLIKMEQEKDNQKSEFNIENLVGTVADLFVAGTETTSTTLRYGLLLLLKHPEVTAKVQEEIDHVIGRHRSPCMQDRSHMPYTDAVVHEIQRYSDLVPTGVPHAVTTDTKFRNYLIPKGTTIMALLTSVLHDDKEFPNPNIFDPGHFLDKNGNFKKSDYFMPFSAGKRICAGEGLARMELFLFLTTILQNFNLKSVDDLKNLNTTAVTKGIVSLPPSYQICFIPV
Description: Inhibition of paclitaxel metabolism to 6-hydroxypaclitaxel in pooled human liver microsomes. The class given is in vitro ADME.

The conditions of data set [2]: single agent, 135 mg m-2, cited from earlier work.
Data set [3] can be described thus: Clinical plasma pharmacokinetics of paclitaxel and its metabolites (HPLC, non-compartmental analysis). The following applies: for AUC / half-life: human.
The mark [4] stands for this setting: in vitro studies, ref Jamis-Dow et al.
Setting [5] is: schedule 1, patients 3, 6, 9 in order.
Setting [6] is: schedule 2, patients 5, 7, 10 in order.
Where [7] appears, read: schedule 3, patients 2, 4, 8 in order.
Setting [8] is: 3-h paclitaxel exposure, single agent, mean (s.d.) n = 3.
Where [9] appears, read: schedule 1, paclitaxel 80 mg m-2 3-h i.v., course 1, patients 3, 6, 9 in order.
[10] abbreviates: schedule 2, paclitaxel 80 mg m-2.
[11] abbreviates: schedule 2, paclitaxel 80 mg m-2 3-h i.v., course 1, patients 5, 7, 10 in order.
Where [12] appears, read: human liver preparations and patients, ref Harris et al, 1994, Kuhn et al.

Take `CN/C(=N/CCSCc1nc[nH]c1C)NC#N` [cimetidine]: the “metabolic interactions with paclitaxel” value with cytochrome P450 (ref Jamis-Dow et al) is reported as “no metabolic interactions”.
In the case of `OC(Cn1cncn1)(Cn1cncn1)c1ccc(F)cc1F` [fluconazole], the “effect on the metabolism of paclitaxel” value with cytochrome P450 (setting [4]) is “inhibit the metabolism of paclitaxel”.
As to `CN(C)CCC(c1ccc(Cl)cc1)c1ccccn1` (stereo not drawn) [chlorpheniramine], the “metabolic interactions with paclitaxel” value in the data set with cytochrome P450 (ref Jamis-Dow et al) is listed as “no metabolic interactions”.
Regarding `Cc1ccc2nc(N)[nH]c(=O)c2c1Sc1ccncc1` [nolatrexed, 3,4-dihydro-2-amino-6-methyl-4-oxo-5-(4-pyridylthio)-quinazolone dihydrochloride], the IC50 in the data set with HNX14C (120 h) came to 1120 nM; in the data set on HNX22B (120 h), 660 nM. Besides, the half-life in data set [1] (setting [5]) stood at 1.1 h; in data set [1] (setting [6]) it was 1.97 h; in data set [1] (setting [7]), 1.62 h. The “Nolatrexed Half-life” value is 1.88 h and 2.13 h in data set [1] (setting [5]); 1.58 h and 2.57 h in data set [1] (setting [6]); 2.2 h and 1.9 h in data set [1] (setting [7]). Also, the “Nolatrexed Clearance” value is 73 ml min-1 m-2 and 108 ml min-1 m-2 and 91 ml min-1 m-2 in data set [1] (setting [6]); 99 ml min-1 m-2 and 62 ml min-1 m-2 and 79 ml min-1 m-2 in data set [1] (setting [7]). Also, in data set [1] (three schedules with paclitaxel), the “effect of schedule on the pharmacokinetics of nolatrexed” value is reported as “no effect of schedule; also recorded: unaffected by schedule”. The “inhibition of paclitaxel metabolism” value against CYP2C8 (human liver microsomes, statement in words) is given as “being an inhibitor of the major routes of metabolism of paclitaxel”. Further, at CYP2C8 (read-out: Ki, inhibition of metabolism of paclitaxel to its 6-hydroxy-metabolite), the inhibition constant (Ki) amounted to 640 nM.
On to `CC(=O)O[C@H]1C(=O)[C@@]2(C)[C@H]([C@H](OC(=O)c3ccccc3)[C@]3(O)C[C@H](OC(=O)[C@H](O)[C@@H](NC(=O)c4ccccc4)c4ccccc4)C(C)=C1C3(C)C)[C@]1(OC(C)=O)CO[C@@H]1C[C@@H]2O` [paclitaxel], for which the 50% inhibitory concentration (IC50) with HNX14C (setting [8]) was 31 nM; in the data set on HNX22B (setting [8]) it was 38 nM. For the same compound, the “Paclitaxel Clearance” value is 247 ml min-1 m-2 in data set [2] (ref Gianni, 1995); 295 ml min-1 m-2 in data set [2] (ref Keung, 1993); 127 ml min-1 m-2 in data set [3] (patient 8, single-agent paclitaxel 135 mg m-2 as 3-h infusion, no nolatrexed); 376 ml min-1 m-2 and 322 ml min-1 m-2 and 411 ml min-1 m-2 in data set [3] (setting [9]); 165–238 ml min-1 m-2 and 165 ml min-1 m-2 and 238 ml min-1 m-2 and 171 ml min-1 m-2 and 165-238 ml min-1 m-2 in data set [3] (setting [11]). For the same compound, the area under the curve (AUC) in data set [3] (plasma, intravenous, 80 mg, AUCs of paclitaxel, schedules 1 and 3 (except patient 8), paclitaxel 80 mg m-2) is 3 to 4.85 µM·h; in data set [3] (plasma, intravenous, 135 mg m-2, Paclitaxel AUC, patient 8, single-agent paclitaxel 135 mg m-2 as 3-h infusion, no nolatrexed) it was 20.6 µM·h; in data set [3] (plasma, iv, 80 mg, Paclitaxel AUC, schedule 1, paclitaxel 80 mg m-2 3-h i.v., course 1, patients 3, 6, 9 in order), 3.78 µM·h; in data set [3] (plasma, iv, 80 mg, Paclitaxel AUC, schedule 2, paclitaxel 80 mg m-2 3-h i.v., course 1, patients 5, 7, 10 in order), 9.42 µM·h. The half-life in data set [3] (plasma, intravenous, 135 mg m-2, Paclitaxel Half-life, patient 8, single-agent paclitaxel 135 mg m-2 as 3-h infusion, no nolatrexed) is 6 h; in data set [3] (plasma, iv, 80 mg, Paclitaxel Half-life, schedule 1, paclitaxel 80 mg m-2 3-h i.v., course 1, patients 3, 6, 9 in order), 7.02 h; in data set [3] (plasma, iv, 80 mg, Paclitaxel Half-life, schedule 2, paclitaxel 80 mg m-2 3-h i.v., course 1, patients 5, 7, 10 in order), 6.88 h; in data set [3] (plasma, iv, 80 mg, Paclitaxel Half-life, schedule 3, paclitaxel 80 mg m-2 3-h i.v., course 1, patients 2, 4, 8 in order) it was 6.08 h. Moreover, the clearance of paclitaxel in data set [3] (patients on schedules 1 and 3 (with the exception of patient 8), paclitaxel 80 mg m-2) was 322–520 ml min-1 m-2 and 322-520 ml min-1 m-2. Moreover, the “Paclitaxel Half-life” value in data set [3] (setting [9]) is 7.37 h and 8.45 h; in data set [3] (setting [11]), 6.35 h and 6.93 h; in data set [3] (schedule 3, paclitaxel 80 mg m-2 3-h i.v., course 1, patients 2, 4, 8 in order), 8.42 h and 6.35 h. Besides, the “time above plasma paclitaxel concentration of 0.05 M” value in data set [3] (schedule 2) was in the range of 16 to 27 h; in data set [3] (schedules 1 and 3), 8 to 18 h. For the same compound, the “time above plasma paclitaxel concentration of 0.1 M” value in data set [3] (schedule 2) lay within 10 to 18 h; in data set [3] (schedules 1 and 3), 5 to 8 h. Moreover, the “Paclitaxel Peak conc.” value in data set [3] (schedule 2 (nolatrexed 0-120 h, paclitaxel 48-51 h), paclitaxel 80 mg m-2 3-h i.v., plasma, course 1, patients 5, 7, 10 in order) was 1.66-1.93 M. Further, the “areas under the curve of paclitaxel” value in data set [3] (setting [10]) is 392 to 565 µM/min. The “peak plasma concentrations of paclitaxel” value in data set [3] (setting [10]) was in the range of 1.66 to 1.93 µM; in data set [3] (schedules 1 and 3 (except patient 8), paclitaxel 80 mg m-2), 860000 to 1.32e+06 µM. Also, in data set [3] (schedule 2, paclitaxel 80 mg m-2 3-h i.v., plasma, course 1, patients 5, 7, 10 in order), the “Paclitaxel AUC” value is 392 to 565 M/min.
`O=C1NC(=O)C(c2ccccc2)(c2ccccc2)N1` [phenytoin]: in the data set on cytochrome P450 (setting [12]), the “effect on the metabolism of paclitaxel” value is “increase the metabolism of paclitaxel”.
For the compound `CCC1(c2ccccc2)C(=O)NC(=O)NC1=O` [phenobarbitone], the “effect on the metabolism of paclitaxel” value in the data set with cytochrome P450 (setting [12]) is on record as “increase the metabolism of paclitaxel”.
Take `CC(=O)N1CCN(c2ccc(OCC3COC(Cn4ccnc4)(c4ccc(Cl)cc4Cl)O3)cc2)CC1` (stereo not drawn) [ketoconazole]: the “effect on the metabolism of paclitaxel” value in the data set on cytochrome P450 (setting [4]) is reported as “inhibit the metabolism of paclitaxel”.
For `C[C@@H]1C[C@H]2[C@@H]3CCC4=CC(=O)C=C[C@]4(C)[C@@]3(F)[C@@H](O)C[C@]2(C)[C@@]1(O)C(=O)CO` [dexamethasone], in the data set with cytochrome P450 (ref Jamis-Dow et al), the “metabolic interactions with paclitaxel” value is given as “no metabolic interactions”.
